# Experimental data: US20210147812A1, “Method of Preparing Cancer Spheroid and Method of Selecting Colorectal Cancer Patient” (Kyo Diagnostics K.K., priority 2017, published 2021)
# Read-outs that look alike come from different tables or passages of the source.
# Experiments:
# [1] = tested on: three luciferase-expressing CRC-TIC spheroid lines (HC21T, HC18T, HC25T); assay: Chemical library screening of 80 agonists or activators for growth-promoting effects; type: cell-based; settings: Homo sapiens, read-out: stimulation of spheroid growth
# Method: For growth monitoring assays, luciferase-expressing spheroids were cultured in 2-3 wells of a 12-well cell-culture plate. […] The spheroid cells were resuspended in Matrigel, distributed to the wells of 96-well “white” cell-culture plates (Corning; 3 μl per well) on a plate heater at 37° C., and cultured overnight in 100 μl/well of the medium. Spheroids were rinsed with 100 μl/well of PBS, and incubated with 50 μl of 150 μg/ml luciferin in phenol red-free DMEM/F12 medium (Nacalai) for 10 min at room temperature […]. Luminescence was scored using a conventional imaging device (Gel Doc XR+, BioRad). After this initial measurement, spheroids in each well were rinsed with 100 μl of PBS, and cultured in 100 μl of the medium. Luminescence was determined daily or 3 days later. The cell growth rate for each well was estimated as the proportion of photon counts to those on day 1.
# [2] = tested on: spheroid lines HC6T, HC9T, and HC20T; assay: Drug sensitivity tests in spheroids (GEI); type: cell-based, human; settings: dose-dependent, FIGS. 16A-16C
# Method: (§1) Luciferase-expressing spheroids were cultured in 2-3 wells of a 12-well cell-culture plate (in 60-90 μl Matrigel). […] From the spheroid solution thus obtained, 300 μl was taken and the cells were resuspended in an equal volume of Matrigel. The spheroid cells in Matrigel were distributed to the wells of 96-well “white” cell-culture plates (Corning; 3 μl per well) on a plate heater at 37° C., and cultured overnight in 100 μl/well of the medium. Spheroids were rinsed with 100 μl/well of PBS, and incubated with 50 μl of 150 μg/ml luciferin in phenol red-free DMEM/F12 medium (Nacalai) for 10 min at room temperature (20-28° C.). Luminescence was scored using a conventional imaging device (Gel Doc XR+, BioRad). After this initial measurement, spheroids in each well were rinsed with 100 μl of PBS, and cultured in 100 μl of the medium. Luminescence was determined on day 1 and day 3. Effects of a drug was determined by obtaining GEI (growth effect index), which is the growth rate of a group treated with the drug compared to a control group (a solvent-treated group). Results were shown using means in three independent experiments each conducted in triplicate.
# The spheroid lines shown in Table 3 were used in this example.
# [3] = tested on: two CRC-TIC spheroid lines (HC18T and HC21T); assay: Titration experiments, dose-dependent effects on growth (GEI); type: cell-based, human; settings: for effect on spheroid growth in titration: at 10 μM
# Method: Shown are the plots and means of GEI in three independent experiments. Asterisks indicate significant differences from the solvent-only group (P<0.05; analyzed using one-way ANOVA followed by Tukey's post-test).
# Shown are the mean GEI±SEM (independent experiments, n=3). Asterisks indicate significant differences from the solvent-only (0 μM) group (P<0.05; analyzed using one-way ANOVA followed by Tukey's post-test).
# (§2) Luminescence was determined daily or 3 days later. The cell growth rate for each well was estimated as the proportion of photon counts to those on day 1. Four or six replicates (with similar statistical power) were analyzed for each data point in all experiments except for the chemical compound screening assays.
# [4] = tested on: CRC spheroids (HC18T, HC21T, and HC52T); assay: Morphology of spheroids after treatment with cAMP-signaling activators (phase-contrast micrographs); type: cell-based, human; settings: 10 μM CV1808, 1 μM NECA, or 1 μM forskolin for five days
# [5] = tested on: HC21T spheroid line; assay: Titration experiment, growth promotion (GEI); type: cell-based, human
# Method: as §2
# [6] = tested on: eleven CRC-TIC spheroid lines and four normal spheroid lines; assay: Dose-dependent effects of SB431542 on the growth of spheroid lines (GEI); type: cell-based, human
# Method: Luciferase-expressing cancer and normal spheroids were cultured in the cancer medium and the eL-WRN medium each containing EGF and bFGF, respectively, in the presence of SB431542 at the indicated concentrations. Tested were eleven CRC-TIC spheroid lines (circle) and four normal spheroid lines (square). Shown are the mean GEI of four replicates.
# as §2
# [7] = tested on: normal colonic epithelial stem cell spheroids; assay: Drug sensitivity tests in spheroids (GEI); type: cell-based, human; settings: concentrations below 1 μM
# Method: as §1
# [8] = tested on: HC6T-PDSX mice; assay: Drug sensitivity tests in PDSX models (tumor volume); type: in vivo, nude mice (BALB/c-nu); settings: 21 days; erdafitinib 10 mg/kg orally, cetuximab 250 μg i.p. twice a week
# Method: Patient-derived spheroids were cultured in a 12-well culture plate to become confluent (4×10^5-4×10^6 cells/plate) and the spheroids were rinsed twice with PBS and placed in a 1.5 ml tube with Matrigel. The volume of the spheroid suspension was adjusted to 100 μl with PBS and the suspension thus obtained was subcutaneously injected into 4-6 week female nude mice (BALB/c-nu) at 1×10^5-9×10^5 cells/mouse.
# PDSX mice were subjected to drug-dosing test when the mean estimated tumor volume reached 300 mm^3. Tumor volume (mm^3) was estimated by the following formula: length×width^2/2. We excluded the following kinds of tumors from the tests as outliers; too small (<100 mm^3), spontaneously shrinking, remaining unchanged in size, or deeply implanted and difficult to be measured.
# The day of the dosing start was defined as day 0, with the tumor volume of each mouse measured twice a week for 3 weeks (days 0-21).
# The relative tumor volume was estimated by calibration to the initial tumor volume on day 0. To evaluate the drug dosing effects, the ratio of tumor volume on day 21 to that on day 0 was compared among the four groups.
# [9] = tested on: HC6T-PDSX and HC20T-PDSX tumors; assay: Histological examinations of PDSX tumors at day 21 (H&E, Ki67); type: in vivo, nude mice (BALB/c-nu); settings: erdafitinib monotherapy group
# Method: Paraffin-embedded tissues of PDSXs were prepared according to the standard procedures. Sections were stained with H&E or immunostained for Ki67.
# [10] = tested on: CRC-TIC spheroid lines that carried wild-type RAS/RAF genes (HC6T, HC9T, HC11T, HC21T); assay: Stimulation of spheroid growth with EGF and/or bFGF, luminescence-based growth monitoring (GEI); type: cell-based, human; settings: HC6T, HC9T
# Method: as §2
# To investigate whether EGF and bFGF helped spheroid proliferation in the cancer medium as described above, we cultured with EGF and/or bFGF four slow-growing CRC-TIC spheroid lines that carried wild-type RAS/RAF genes (HC6T, HC9T, HC11T, HC21T). Because EGF/bFGF facilitated the growths of these spheroid lines substantially (FIG. 3A), we then quantified their effects by the luminescence-based growth monitoring. To calibrate the effects, we introduced the growth effect index (GEI) defined as the relative growth rate of a treated group to that of its solvent-only control in each paired assay. […] The extents of growth promotion by EGF and bFGF were different depending on the spheroid line. […] In another spheroid line (HC21T), the effects were similar between the two growth factors (FIG. 3B).
compound,measurement,setting,value
"CCCCCCCCc1ccc(-c2ccc(C(=O)O)cc2)cc1 [AC55649, 4′-Octyl-[1,1′-biphenyl]-4-carboxylic acid]",activation at 10 µM,[1]; 10 μM each,> 25%
CCN1CCN(c2ccc(Nc3cc(N(C)C(=O)Nc4c(Cl)c(OC)cc(OC)c4Cl)ncn3)cc2)CC1 [BGJ398],growth of spheroid lines (GEI),[2],suppressed the growth
C=CC(=O)N[C@H]1CCOC[C@H]1Nc1ncc2cc(-c3c(Cl)c(OC)cc(OC)c3Cl)ccc2n1 [BLU554],growth of spheroid lines (GEI),[2],suppressed the growth
"Nc1nc(Nc2ccccc2)nc2c1ncn2[C@@H]1O[C@H](CO)[C@@H](O)[C@H]1O [CV1808, 2-phenylaminoadenosine]",growth-promoting effect compared with NECA,"[3]; dose-dependent, FIG. 9A",growth-promoting effect though weaker than that of NECA
same,morphological changes in spheroids,[4],cell flattening and increased sphere size
same,activation at 10 µM,[1]; 10 μM each,> 25%
"CCn1c(=O)[nH]c2cc(Cl)c(Cl)cc21 [DCEBIO, 5,6-Dichloro-1-ethyl-1,3-dihydro-2H-benzimidazol-2-one]",activation at 10 µM,[1]; 10 μM each,> 25%
"Cc1cc(SCc2sc(-c3ccc(C(F)(F)F)c(F)c3)nc2C)ccc1OCC(=O)O [GW0742, [4-[[[2-[3-fluoro-4-(trifluoromethyl)phenyl]-4-methyl-5-thiazolyl]methyl]thio]-2-methylphenoxy]-acetic acid]",effect on spheroid growth in titration,[3],significant effects
same,activation at 10 µM,[1],> 25%
"CC(C)(Sc1ccc(CCN(CCCCC2CCCCC2)C(=O)NC2CCCCC2)cc1)C(=O)O [GW7647, 2-methyl-2-[[4-[2-[[(cyclohexylamino)carbonyl](4-cyclohexylbutyl)amino]ethyl]phenyl]thio]-propanoic acid]",activation at 10 µM,[1]; 10 μM each,> 25%
"CCCc1c(OCCCOc2ccc(OCC(=O)O)cc2)ccc(C(C)=O)c1O [L-165,041, [4-[3-(4-Acetyl-3-hydroxy-2-propylphenoxy)propoxy]phenoxy]acetic acid]",activation at 10 µM,[1]; 10 μM each,> 25%
"CCNC(=O)[C@H]1O[C@@H](n2cnc3c(N)ncnc32)[C@H](O)[C@@H]1O [NECA, 5′-(N-ethyl-carboxamido)-adenosine]",morphological changes in spheroids,[4],cell flattening and increased sphere size
same,EC50,[5],195 nM
"CN[C@H](CC(=O)O)C(=O)O [NMDA, N-Methyl-D-aspartic acid]",activation at 10 µM,[1],> 25%
"NC(=O)c1ccc(-c2nc(-c3ccc4c(c3)OCO4)c(-c3ccccn3)[nH]2)cc1 [SB431542, 4-[4-(1,3-benzodioxol-5-yl)-5-(2-pyridinyl)-1H-imidazol-2-yl]benzamide]",effect on spheroid growth,[6]; at 10 μM,growth inhibition
same,effect on cancer versus normal spheroids,"[6]; indicated concentrations, FIG. 7A",effects on cancer spheroids were less than those on normal spheroids
"Nc1nc2c(ccc3ccccc32)s1 [SKA-31, Naphtho[1,2-d]thiazol-2-ylamine]",effect on spheroid growth in titration,[3],significant effects
same,activation at 10 µM,[1]; 10 μM each,> 25%
"COC(=O)C(Cc1ccc(OCCn2c(=O)sc3cc(C(=O)c4ccccc4)ccc32)cc1)C(=O)OC [compound 526948, [[4-[2-(6-Benzoyl-2-oxo-3(2H)-benzothiazolyl)ethoxy]phenyl]methyl]-1,3-propanedioic acid dimethyl ester]",activation at 10 µM,[1]; 10 μM each,> 25%
COc1cc(OC)cc(N(CCNC(C)C)c2ccc3ncc(-c4cnn(C)c4)nc3c2)c1 [erdafitinib],growth of normal spheroids,[7],hardly suppressed the growth
same,tumor volume versus control,[8],reduced the tumor volume
same,growth of spheroid lines (GEI),[2],suppressed the growth
same,tumors that disappeared (complete response),[9],One of three
COCc1c(-c2cc3cc(C)cc(OC)c3s2)c2c(N)ncnn2c1CN1CCNC(=O)C1 [rogoratinib],growth of spheroid lines (GEI),[2],suppressed the growth
AZD4547,growth of spheroid lines (GEI),[2],suppressed the growth
"bFGF: basic fibroblast growth factor, recombinant human protein","extent of growth promotion, bFGF versus EGF",[10],more effective than EGF
